Laboratory results published in ChEMBL document CHEMBL1138677, “Design, synthesis, and biological evaluation of new cyclic disulfide decapeptides that inhibit the binding of AP-1 to DNA” (J Med Chem, 2004).
Residues, ends and D or L forms follow the SMILES beside them.

Legend:
[1] = molecular target: Transcription factor AP1 (Homo sapiens) (UniProt P05412+P01100); experiment: Percent inhibition of transcription activator protein-1 (AP-1) in DNA binding assay at 100 uM; format: protein-complex assay
[2] = molecular target: Transcription factor AP1 (Homo sapiens, UniProt P01100+P05412); experiment: Inhibitory activity against transcription activator protein-1 (AP-1); format: protein-complex assay
Chain of Transcription factor AP1 (P05412 whole entry): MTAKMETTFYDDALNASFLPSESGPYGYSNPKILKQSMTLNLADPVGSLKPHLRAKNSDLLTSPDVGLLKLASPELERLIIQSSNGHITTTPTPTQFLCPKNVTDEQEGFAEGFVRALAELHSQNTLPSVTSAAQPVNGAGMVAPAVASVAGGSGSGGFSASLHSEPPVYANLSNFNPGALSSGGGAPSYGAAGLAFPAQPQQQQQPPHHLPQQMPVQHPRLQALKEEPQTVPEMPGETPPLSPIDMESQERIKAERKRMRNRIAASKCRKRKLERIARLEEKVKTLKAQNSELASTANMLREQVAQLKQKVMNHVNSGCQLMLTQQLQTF
Chain of Transcription factor AP1 (P01100 whole entry): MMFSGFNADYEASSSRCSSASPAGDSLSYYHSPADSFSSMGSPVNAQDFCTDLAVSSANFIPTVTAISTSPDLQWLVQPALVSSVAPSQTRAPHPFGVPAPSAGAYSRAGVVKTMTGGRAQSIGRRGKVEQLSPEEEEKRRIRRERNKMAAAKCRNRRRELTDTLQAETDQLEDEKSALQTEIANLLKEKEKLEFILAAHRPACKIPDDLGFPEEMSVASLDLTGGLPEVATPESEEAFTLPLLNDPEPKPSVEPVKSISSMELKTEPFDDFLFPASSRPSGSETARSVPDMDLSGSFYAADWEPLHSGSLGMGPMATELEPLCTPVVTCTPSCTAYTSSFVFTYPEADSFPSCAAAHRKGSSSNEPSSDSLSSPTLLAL

SMILES	inhibition [1] [%]	IC50 [2] [µM]
CC(C)C[C@H](NC(=O)[C@H](C)NC(=O)[C@H](CC(C)C)NC(=O)[C@H](CCC(N)=O)NC(=O)CN)C(=O)N[C@@H](C)C(=O)N[C@@H](CC(=O)O)C(=O)NCC(=O)O (H-GQLALADG-OH)	-1	> 200
CC(C)C[C@H](NC(=O)[C@H](CC(=O)O)NC(=O)[C@H](CC(C)C)NC(=O)[C@H](CCC(N)=O)NC(=O)CN)C(=O)N[C@@H](C)C(=O)N[C@@H](CC(=O)O)C(=O)O (H-GQLDLAD-OH)	11	> 100
CC(C)C[C@H](NC(=O)[C@H](CC(=O)O)NC(=O)[C@H](CC(C)C)NC(=O)[C@H](CCC(N)=O)NC(=O)CN)C(=O)N[C@@H](C)C(=O)N[C@@H](CC(N)=O)C(=O)NCC(=O)O (H-GQLDLANG-OH)	64	52
CC(C)C[C@H](NC(=O)[C@H](CC(=O)O)NC(=O)[C@H](CC(C)C)NC(=O)[C@H](CCC(N)=O)NC(=O)CN)C(=O)N[C@@H](C)C(=O)N[C@@H](CC(=O)O)C(=O)NCC(=O)O (H-GQLDLADG-OH)	81	8
CC(C)C[C@H](NC(=O)[C@H](CC(=O)O)NC(=O)[C@H](CC(C)C)NC(=O)[C@H](CCC(N)=O)NC(=O)CN)C(=O)NCC(=O)N[C@@H](CC(=O)O)C(=O)NCC(=O)O (H-GQLDLGDG-OH)	1	> 200
CC(C)C[C@H](NC(=O)[C@H](CC(=O)O)NC(=O)[C@H](C)NC(=O)[C@H](CCC(N)=O)NC(=O)CN)C(=O)N[C@@H](C)C(=O)N[C@@H](CC(=O)O)C(=O)NCC(=O)O (H-GQADLADG-OH)	11	> 100
CC(C)C[C@H](NC(=O)[C@H](CCC(N)=O)NC(=O)CN)C(=O)N[C@@H](CC(=O)O)C(=O)N[C@@H](C)C(=O)N[C@@H](C)C(=O)N[C@@H](CC(=O)O)C(=O)NCC(=O)O (H-GQLDAADG-OH)	7	> 100
CC(C)C[C@H](NC(=O)[C@H](CC(=O)O)NC(=O)[C@H](CC(C)C)NC(=O)[C@H](CC(N)=O)NC(=O)CN)C(=O)N[C@@H](C)C(=O)N[C@@H](CC(=O)O)C(=O)NCC(=O)O (H-GNLDLADG-OH)	42	> 100
CC(C)C[C@H](NC(=O)[C@H](C)NC(=O)CN)C(=O)N[C@@H](CC(=O)O)C(=O)N[C@@H](CC(C)C)C(=O)N[C@@H](C)C(=O)N[C@@H](CC(=O)O)C(=O)NCC(=O)O (H-GALDLADG-OH)	29	> 100
CC(C)C[C@H](NC(=O)[C@H](CCC(N)=O)NC(=O)CN)C(=O)N[C@@H](CC(=O)O)C(=O)N[C@@H](CC1CCCCC1)C(=O)N[C@@H](C)C(=O)N[C@@H](CC(=O)O)C(=O)NCC(=O)O (HELM PEPTIDE1{G.Q.L.D.[Cha].A.D.G}$$$$V2.0)	10	> 100
CC(C)C[C@H](NC(=O)[C@H](CC(=O)O)NC(=O)[C@H](CC1CCCCC1)NC(=O)[C@H](CCC(N)=O)NC(=O)CN)C(=O)N[C@@H](C)C(=O)N[C@@H](CC(=O)O)C(=O)NCC(=O)O (HELM PEPTIDE1{G.Q.[Cha].D.L.A.D.G}$$$$V2.0)		> 100
CC(C)C[C@H](NC(=O)[C@H](CC(=O)O)NC(=O)[C@H](CC(C)C)NC(=O)[C@H](CCC(N)=O)NC(=O)CN)C(=O)N[C@@H](C)C(=O)N[C@@H](C)C(=O)NCC(=O)O (H-GQLDLAAG-OH)	14	> 100
CC(C)C[C@H](NC(=O)[C@H](CC(=O)O)NC(=O)[C@H](CC(C)C)NC(=O)[C@H](CCC(N)=O)NC(=O)CN)C(=O)N[C@@H](C)C(=O)N[C@@H](CC(=O)O)C(=O)N[C@@H](C)C(=O)O (H-GQLDLADA-OH)	15	> 100
CC(C)C[C@H](NC(=O)[C@H](CC(=O)O)NC(=O)[C@H](CC(C)C)NC(=O)[C@H](CCCCN)NC(=O)CN)C(=O)N[C@@H](C)C(=O)N[C@@H](CC(=O)O)C(=O)NCC(=O)O (H-GKLDLADG-OH)	-2	> 200
CC(C)C[C@H](NC(=O)[C@H](CC(=O)O)NC(=O)[C@H](CC(C)C)NC(=O)[C@H](CCC(=O)O)NC(=O)CN)C(=O)N[C@@H](C)C(=O)N[C@@H](CC(=O)O)C(=O)NCC(=O)O (H-GELDLADG-OH)	-2	> 200
CC(C)C[C@H](NC(=O)[C@H](CC(=O)O)NC(=O)[C@H](CC(C)C)NC(=O)[C@H](CCC(N)=O)NC(=O)[C@H](C)N)C(=O)N[C@@H](C)C(=O)N[C@@H](CC(=O)O)C(=O)NCC(=O)O (H-AQLDLADG-OH)	5	> 100
CC(C)C[C@H](NC(=O)[C@H](CC(=O)O)NC(=O)[C@H](CC(C)C)NC(=O)[C@@H](N)CCC(N)=O)C(=O)N[C@@H](C)C(=O)N[C@@H](CC(=O)O)C(=O)NCC(=O)O (H-QLDLADG-OH)	-2	> 100
